Laboratory results reported in BindingDB's records for doi:10.1124/jpet.302.1.359 (Bayer, 2002).
pKi: −log10 of the molar value.

Columns and labels:
[1] = target: Cannabinoid receptor 1 (Homo sapiens, UniProt P21554)
[2] = target: Cannabinoid receptor 2 (Homo sapiens, UniProt P34972)
Sequence of Cannabinoid receptor 2 (P34972 whole entry): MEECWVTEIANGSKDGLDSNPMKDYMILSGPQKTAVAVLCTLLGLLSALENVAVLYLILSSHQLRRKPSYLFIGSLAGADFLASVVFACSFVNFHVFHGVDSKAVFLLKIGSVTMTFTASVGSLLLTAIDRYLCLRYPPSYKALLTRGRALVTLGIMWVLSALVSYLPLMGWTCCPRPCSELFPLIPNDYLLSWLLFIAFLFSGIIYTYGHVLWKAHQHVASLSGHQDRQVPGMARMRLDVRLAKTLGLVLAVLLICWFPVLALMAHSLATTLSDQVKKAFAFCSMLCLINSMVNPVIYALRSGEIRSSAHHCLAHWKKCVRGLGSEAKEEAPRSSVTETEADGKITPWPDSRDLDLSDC

Sequence of Cannabinoid receptor 1 (P21554 whole entry): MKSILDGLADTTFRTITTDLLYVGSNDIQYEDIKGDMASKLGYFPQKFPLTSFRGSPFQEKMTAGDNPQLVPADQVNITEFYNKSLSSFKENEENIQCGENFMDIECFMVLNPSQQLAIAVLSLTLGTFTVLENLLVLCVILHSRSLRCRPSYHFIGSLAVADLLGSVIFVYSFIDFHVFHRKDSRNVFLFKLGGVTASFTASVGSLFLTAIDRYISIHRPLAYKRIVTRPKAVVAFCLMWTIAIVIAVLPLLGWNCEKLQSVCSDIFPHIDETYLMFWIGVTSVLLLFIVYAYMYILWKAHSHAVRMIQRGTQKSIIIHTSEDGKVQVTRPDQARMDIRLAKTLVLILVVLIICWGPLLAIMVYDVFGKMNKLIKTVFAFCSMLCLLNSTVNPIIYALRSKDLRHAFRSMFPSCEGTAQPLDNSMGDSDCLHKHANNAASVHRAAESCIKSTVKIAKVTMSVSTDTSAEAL

| SMILES | pKi [1] | pKi [2] |
| --- | --- | --- |
| CCCCCCC(C)(C)c1cc(O)c2c(c1)OC(C)(C)[C@@H]1CC=C(CO)CC21 (stereo partly drawn) [(R)-3-(1,1-Dimethyl-heptyl)-9-hydroxymethyl-6,6-dimethyl-6a,7,10,10a-tetrahydro-6H-benzo[c]chromen-1-ol] | 9.39 | – |
| O=S(=O)(CCCC(F)(F)F)Oc1cccc(Oc2ccc(O)c3c2CC(CO)=C3)c1 [KN 38-7271] | – | 8.22 |
